Measured values published in patent US20250235509A1, “Formulation and Method of Preparing Glucagon-like Peptide-1 (GLP-1) for Oral Administration” (priority 2024, published 2025).
Values joined by “and” are separate entries in the source; they are usually repeats but may differ in a detail not shown here. Equal entries are not always repeated. Where two headings read alike, the source gives them in different places. Values belong to the compound of their own block, whether it stands above or below them.

How the values were obtained:
[1] = in vivo
Protocol: (§1) The concentrations of each reagent are as follows: • Liraglutide: 1.5 mM • EDTA: 5 to 10 mM • Zinc acetate: 15-100 mM Referring to FIGS. 1-7, an enzyme-linked immunosorbent assay (ELISA) was performed on the sera of mice orally administered with Liraglutide following the PSIM process.
(§2) In this assay, a mouse (at two weeks old) was gavaged with Liraglutide in contrasts to a control mouse to which no Liraglutide was administered. After two hours, serum was collected, and an ELISA assay performed.
(§3) Two hours later, serum was collected, and an ELISA assay was performed.

[2] = mouse, in vivo
Protocol: (§4) A mouse at two weeks old was gavaged with Liraglutide, or not treated with Liraglutide to serve as a control mouse. Two hours later, the pancreas of the mouse was collected and homogenized, and a protein extract was centrifuged. Thereafter the ELISA essay was conducted.
(§5) Experimental mice, at two weeks old, were gavaged with Semaglutide GLP-1 at 0.16 mg/mouse, and control mice received no orally administered Semaglutide GLP-1. Two hours later, the pancreas and brain were collected and homogenized, and protein extracts were subjected to an ELISA assay.

[3] = mouse, in vivo, po
Protocol: (§6) A quantitative ELISA assay to determine the absorption rate was also performed. The experimental mouse was sacrificed and whole body fluid collected one hour after feeding with Liraglutide. The intensity of the color was compared with that of a standard curve constructed by standard Liraglutide.
(§7) A quantitative ELISA assay was performed to determine the absorption rate, and the mice were sacrificed and whole body fluid collected one hour after feeding with Semaglutide GLP-1. […] The intensity of the color was compared with that of a standard curve constructed by standard Semaglutide GLP-1.

[4] = orally administered in combination with absorption enhancer such as Salcaprozate sodium (SNAC); cited from earlier work
[5] = ELISA assay of pancreas and brain extracts of orally dosed mice; details: two hours after gavage at 0.16 mg/mouse, mice two weeks old
Protocol: as §4, §5

blood glucose [6] = assay: Glucose tolerance in human subject (blood glucose AUC); format: in vivo
Protocol: A human subject was orally given 10 mg Semaglutide GLP-1 prepared as described in FIG. 8 at −2 minutes. A control human subject was not administered any Semaglutide GLP-1 At time zero, 15 g glucose was orally given. Blood glucose levels were monitored every fifteen minutes thereafter for ninety minutes. The area-under-curve (AUC), which represents the quantity of glucose in the blood was then determined.

[7] = ELISA assay of sera/plasma of mice orally administered with PSIM-processed GLP-1 analog; details: serum collected two hours after gavage, mouse two weeks old, vs control mouse
Protocol: as §1, §2, §3

[8] = Body weight change in mice given oral GLP-1 analog; format: in vivo, mouse; details: for % Body Weight Change / Body Weight (Day 1) / Body Weight (Day 7): individual Exp. mice
Protocol: A quantity of orally administered Semaglutide GLP-1 was prepared as discussed in FIG. 8, and orally given to mice (Exp.) for seven days, along with control mice (Control) to which no Semaglutide GLP-1 was orally administered. Body weight was measured at the beginning and on the seventh day. The results are reflected in the following table:
In one experiment, orally administered Tirzepatide GLP-1 caused weight loss in mice. A quantity of orally administered Tirzepatide GLP-1 was prepared as discussed above, and orally given to mice (Exp.) for five days, along with control mice (Control) to which no Tirzepatide GLP-1 was orally administered. Body weight was measured at the beginning and on the fifth day.

[9] = Quantitative ELISA assay of whole body fluid to determine the absorption rate; details: oral; whole body fluid collected one hour after feeding; color intensity vs standard curve
Protocol: as §6, §7

blood glucose [10] = assay: Blood glucose in mice after oral glucose solution; format: in vivo, mouse; details: fasted four hours, 50 mg oral glucose
Protocol: The orally administered Liraglutide was prepared by incubating Liraglutide at 1.7 mM in 9.6 mM EDTA for two hours, followed by incubation of the mixture with 15 mM zinc acetate for twelve hours to produce a Liraglutide for oral administration. The experimental mice were orally given 0.5 mg Liraglutide, and the control mice were administered a vehicle solution for 5 days. Thereafter, experimental and control mice were fasted for four hours followed by an orally given 50 mg glucose solution. Three and a half hours later, blood glucose was determined. The control mice were given a non-Liraglutide vehicle (N=3).
The orally administered Semaglutide GLP-1 was prepared by incubating Semaglutide GLP-1 at 1.7 mM in 9.6 mM EDTA for two hours, followed by incubation of the mixture with 15 mM zinc acetate for twelve hours to produce a Semaglutide GLP-1 for oral administration. Experimental mice were orally given 0.5 mg Liraglutide, and control mice were given a vehicle solution for 5 days. Thereafter, experimental and control mice were fasted for four hours, followed by an orally given 50 mg glucose solution. Three and a half hours later blood glucose was determined. The control mice were given a non-Liraglutide vehicle (N=3).
Orally administered Tirzepatide GLP-1 was also shown to lower blood glucose levels in mice. The orally administered Tirzepatide GLP-1 was prepared in the manner discussed above. Thereafter 0.15 mg of orally administered Tirzepatide GLP-1 was fed to mice for five days. The mice were fasted for four hours, then 50 mg of a glucose solution was orally given. Three hours later, blood glucose levels were determined. In three control mice, who received no orally administered Tirzepatide GLP-1, the glucose levels in mg/dl were 93, 95, and 88, respectively. In three experimental mice that received orally administered Tirzepatide GLP-1, the glucose levels were 50, 52, and 47, respectively. […]

presence of GLP-1 in orally dosed mouse vs control, all instances FIGS. 1-4 ([1]; po): increased presence of GLP-1
presence in serum by ELISA (blue color) ([1]; mouse): existence of Liraglutide in the serum
time at which substance appeared in the pancreas after gavage [2]: ninety
absorption rate [3]: seventy two
Compound: CCCCCCCCCCCCCCCC(=O)N[C@@H](CCC(=O)NCCCC[C@H](NC(=O)[C@H](C)NC(=O)[C@H](C)NC(=O)[C@H](CCC(N)=O)NC(=O)CNC(=O)[C@H](CCC(=O)O)NC(=O)[C@H](CC(C)C)NC(=O)[C@H](Cc1ccc(O)cc1)NC(=O)[C@H](CO)NC(=O)[C@H](CO)NC(=O)[C@@H](NC(=O)[C@H](CC(=O)O)NC(=O)[C@H](CO)NC(=O)[C@@H](NC(=O)[C@H](Cc1ccccc1)NC(=O)[C@@H](NC(=O)CNC(=O)[C@H](CCC(=O)O)NC(=O)[C@H](C)NC(=O)[C@@H](N)Cc1cnc[nH]1)[C@@H](C)O)[C@@H](C)O)C(C)C)C(=O)N[C@@H](CCC(=O)O)C(=O)N[C@@H](Cc1ccccc1)C(=O)N[C@H](C(=O)N[C@@H](C)C(=O)N[C@@H](Cc1c[nH]c2ccccc12)C(=O)N[C@@H](CC(C)C)C(=O)N[C@H](C(=O)N[C@@H](CCCNC(=N)N)C(=O)NCC(=O)N[C@@H](CCCNC(=N)N)C(=O)NCC(=O)O)C(C)C)[C@@H](C)CC)C(=O)O [Liraglutide]

Compound: Semaglutide
bioavailability [4]: about 0.8%

Compound: Semaglutide [Semaglutide GLP-1]
presence in brain extract by ELISA (blue color) [5]: presence of orally administered Semaglutide GLP-1 in the pancreas and brain
presence in pancreas extract by ELISA (blue color) [5]: presence of orally administered Semaglutide GLP-1 in the pancreas and brain
blood glucose area-under-curve (AUC) (blood glucose [6]; 10 mg orally at -2 minutes, 15 g oral glucose at time zero, monitored ninety minutes): 232
AUC reduction vs control subject (blood glucose [6]; 10 mg orally, 15 g oral glucose, ninety minutes): twenty six
presence in serum by ELISA (blue color) [7]: existed in the experimental mouse serum
% Body Weight Change ([8]; Day 1 to Day 7 of oral dosing): −7% and +8%
Body Weight (Day 1) ([8]; beginning of seven days oral dosing): 28 g (2×) and 24 g
Body Weight (Day 7) ([8]; seventh day of oral dosing): 26 g (2×) and 28 g
body weight outcome relative to control mice ([8]; oral dosing for seven days): reduced weight gain or weight loss relative to the control mice
absorption rate [9]: approximately seventy
blood glucose (average) (blood glucose [10]; 0.5 mg orally for 5 days, measured three and a half hours later, N=3): 45.00
average difference in blood glucose, control mice vs treated mice (blood glucose [10]; 0.5 mg orally for 5 days, three and a half hours later): approximately 50%

Compound: Tirzepatide [Tirzepatide GLP-1]
Body Weight (Day 1) ([8]; beginning of five days oral dosing): 26 g and 24 g and 28 g
% Body Weight Change ([8]; oral dosing for five days): −18% and −4.1% and −7.1%
Body Weight (Day 7) ([8]; oral dosing for five days, text says measured on the fifth day): 22 g and 23 g and 26 g
body weight outcome relative to control mice ([8]; oral dosing for five days): reduced weight gain or weight loss relative to the control mice
glucose levels (blood glucose [10]; individual mice, 0.15 mg orally for five days, three hours later): 50 mg/dL and 52 mg/dL and 47 mg/dL
